# Key:
# Klebsiella pneumoniae = assay: serial broth dilution test, growth inhibition; format: cell-based; settings: nutrient broth, incubated at 37° C. for 2 days, examined for presence of growth
# Procedure: (§1) Grove and W. A. Randall in "Assay Methods of Antibiotics", Med. Encycl. Inc., New York, 1955.
# (§2) For example, by employing a test like the serial broth dilution, see Grove and Randall, cited above, in which dilutions of the compounds of this invention in nutrient broth are inoculated with the microorganisms or fungi, described above, incubated at 37° C. for 2 days, respectively, and examined for the presence of growth, it may be shown that isomers L and M of cyclo-[N-[1-(1-methylethyl)-2-cyclohexylamino-2-oxo-ethyl]-alanyl-phenylalanyl-valylglycyl-leucyl-methionyl] (described in Example 2) are able to inhibit growth totally in this system of Klebsiella pneumoniae and Serratia marcescens at a concentration of 100/mcg/ml.
# Serratia marcescens = assay: serial broth dilution test, growth inhibition; format: cell-based; settings: nutrient broth, incubated at 37° C. for 2 days, examined for presence of growth
# Procedure: as §1, §2
compound,measurement,setting,value
"CSCC[C@@H]1NC(=O)[C@H](CC(C)C)NC(=O)CNC(=O)[C@H](C(C)C)NC(=O)[C@H](Cc2ccccc2)NC(=O)[C@H](C)N(C(C(=O)NC2CCCCC2)C(C)C)C1=O (stereo partly drawn) [isomer L, Cyclo[N-[1-(1-methylethyl)-2-cyclohexylamino-2-oxo-ethyl]-alanyl-phenylalanyl-valyl-glycyl-leucyl-methionyl]]",concentration able to inhibit growth totally,Klebsiella pneumoniae,100 µg/mL
same,concentration able to inhibit growth totally,Serratia marcescens,100 µg/mL
